Columns and labels:
Assay type in all cases: biochemical
human Tyro3 = target: T1, human Tyro3 (Homo sapiens, UniProt Q06418); assay: Kinase enzymatic activity assay (33P-radiolabeled phosphate transfer), Tyro3; conditions: recombinant human Tyro3 (455-end), poly(4:1 glu:tyr) substrate, 30 minutes
T1 construct: GST (N); made in house; host or cells: Sf9 insect cells (baculovirus)
T1 sequence (Q06418 455-890 limits assumed): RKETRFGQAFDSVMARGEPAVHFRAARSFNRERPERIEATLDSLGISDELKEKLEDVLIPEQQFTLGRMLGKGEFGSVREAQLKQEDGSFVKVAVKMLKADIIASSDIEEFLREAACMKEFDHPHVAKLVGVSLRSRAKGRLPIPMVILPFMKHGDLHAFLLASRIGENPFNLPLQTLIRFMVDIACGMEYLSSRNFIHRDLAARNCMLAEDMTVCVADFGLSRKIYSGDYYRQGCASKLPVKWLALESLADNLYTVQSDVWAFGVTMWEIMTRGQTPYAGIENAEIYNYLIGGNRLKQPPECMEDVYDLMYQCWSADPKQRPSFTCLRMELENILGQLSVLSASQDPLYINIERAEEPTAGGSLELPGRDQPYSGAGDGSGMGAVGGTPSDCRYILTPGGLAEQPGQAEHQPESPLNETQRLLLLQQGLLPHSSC
Method in brief: (§1)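 GST-tagged human Tyro3 (455-end), Axl (473-end) and Mer (578-872) from Sf9 cells, with poly(Glu:Tyr) 4:1 substrate, in MOPS pH 7.2 buffer with MgCl2. [33P]-ATP added from a 250 µM cocktail; reaction 30 min at room temperature, filter-captured counts, duplicates. IC50 derived from % inhibition over a compound serial dilution.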

human Axl = target: T2, human Axl (Homo sapiens, UniProt P30530); assay: Kinase enzymatic activity assay (33P-radiolabeled phosphate transfer), Axl; conditions: recombinant human Axl (473-end), poly(4:1 glu:tyr) substrate, 30 minutes
T2 construct: GST (N); made in house; host or cells: Sf9 insect cells (baculovirus)
T2 sequence (P30530 473-894 limits assumed): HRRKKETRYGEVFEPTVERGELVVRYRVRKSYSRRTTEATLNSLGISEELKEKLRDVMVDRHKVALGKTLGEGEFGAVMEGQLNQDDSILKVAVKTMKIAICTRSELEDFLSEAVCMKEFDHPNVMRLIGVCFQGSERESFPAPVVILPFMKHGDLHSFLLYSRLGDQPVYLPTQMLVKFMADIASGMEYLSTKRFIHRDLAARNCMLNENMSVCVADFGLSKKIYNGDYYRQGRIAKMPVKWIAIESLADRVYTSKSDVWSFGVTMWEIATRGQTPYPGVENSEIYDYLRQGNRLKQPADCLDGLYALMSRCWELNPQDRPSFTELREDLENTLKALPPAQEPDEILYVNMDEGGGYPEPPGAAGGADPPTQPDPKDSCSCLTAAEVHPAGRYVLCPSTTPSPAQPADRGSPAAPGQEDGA
Method in brief: as §1

human Mer = target: T3, human Mer (Homo sapiens, UniProt Q12866); assay: Kinase enzymatic activity assay (33P-radiolabeled phosphate transfer), Mer; conditions: recombinant human Mer (578-872), poly(4:1 glu:tyr) substrate, 30 minutes
T3 construct: GST (N); made in house; host or cells: Sf9 insect cells (baculovirus)
T3 sequence (Q12866 578-872): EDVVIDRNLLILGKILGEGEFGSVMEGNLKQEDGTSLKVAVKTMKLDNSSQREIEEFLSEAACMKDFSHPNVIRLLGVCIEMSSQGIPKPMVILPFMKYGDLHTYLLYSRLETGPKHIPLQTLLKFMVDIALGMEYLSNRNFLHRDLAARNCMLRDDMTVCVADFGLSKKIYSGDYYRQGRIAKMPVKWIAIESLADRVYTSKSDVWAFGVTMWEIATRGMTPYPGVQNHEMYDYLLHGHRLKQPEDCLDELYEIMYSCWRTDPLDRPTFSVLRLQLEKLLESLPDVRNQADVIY
Method in brief: as §1

| Compound | IC50 (human Tyro3) [nM] | IC50 (human Axl) [nM] | IC50 (human Mer) [nM] |
| --- | --- | --- | --- |
| c1nc(Nc2nncs2)c2c(OC3CCOCC3)cc(OCCCN3CCOCC3)cc2n1 [Example 2.19, N-(7-(3-morpholinopropoxy)-5-((tetrahydro-2H-pyran-4-yl)oxy)quinazolin-4-yl)-1,3,4-thiadiazol-2-amine] | 1000 to 10000 | < 500 | 1000 to 10000 |
| Cc1nc(Sc2ncnc3cc(OCC4CCN(C)CC4)cc(OC4CCOCC4)c23)oc1C [Example 2.49, 4,5-dimethyl-2-((7-((1-methylpiperidin-4-yl)methoxy)-5-((tetrahydro-2H-pyran-4-yl)oxy)quinazolin-4-yl)thio)oxazole] | 1000 to 10000 | > 10000 | > 10000 |
| Cc1cc(Nc2ncnc3cc(OCC4CCN(C)CC4)cc(OC4CCOCC4)c23)on1 [Example 2.40, 3-methyl-N-(7-((1-methylpiperidin-4-yl)methoxy)-5-((tetrahydro-2H-pyran-4-yl)oxy)quinazolin-4-yl)isoxazol-5-amine] | 1000 to 10000 | < 500 | 1000 to 10000 |
| FC(F)(F)c1nnc(Nc2ncnc3cc(OCCCN4CCOCC4)cc(OC4CCOCC4)c23)s1 [Example 2.22, N-(7-(3-morpholinopropoxy)-5-((tetrahydro-2H-pyran-4-yl)oxy)quinazolin-4-yl)-5-(trifluoromethyl)-1,3,4-thiadiazol-2-amine] | > 10000 | 1000 to 10000 | > 10000 |
| CN1CCC(COc2cc(OC3CCOCC3)c3c(Nc4nnc(C(F)(F)F)s4)ncnc3c2)CC1 [Example 2.37, N-(7-((1-methylpiperidin-4-yl)methoxy)-5-((tetrahydro-2H-pyran-4-yl)oxy)quinazolin-4-yl)-5-(trifluoromethyl)-1,3,4-thiadiazol-2-amine] | > 10000 | 1000 to 10000 | > 10000 |
| CN1CCC(COc2cc(OC3CCOCC3)c3c(Nc4nccs4)ncnc3c2)CC1 [Example 2.39, N-(7-((1-methylpiperidin-4-yl)methoxy)-5-((tetrahydro-2H-pyran-4-yl)oxy)quinazolin-4-yl)thiazol-2-amine] | 500 to 1000 | < 500 | < 500 |
| CN1CCC(COc2cc(OC3CCOCC3)c3c(Sc4nncs4)ncnc3c2)CC1 [Example 2.47, 2-((7-((1-methylpiperidin-4-yl)methoxy)-5-((tetrahydro-2H-pyran-4-yl)oxy)quinazolin-4-yl)thio)-1,3,4-thiadiazole] | 1000 to 10000 | < 500 | 1000 to 10000 |

Next, values leading:

| IC50 (human Tyro3) [nM] | IC50 (human Axl) [nM] | IC50 (human Mer) [nM] | Compound |
| --- | --- | --- | --- |
| 1000 to 10000 | < 500 | 1000 to 10000 | CN(C)CCN1CCN(c2cc(OC3CCOCC3)c3c(Nc4nc(C(F)(F)F)cs4)ncnc3c2)CC1 [Example 2.57, N-(7-(4-(2-(dimethyl-amino)ethyl)piperazin-1-yl)-5-((tetrahydro-2H-pyran-4-yl)oxy)-quinazolin-4-yl)-4-(trifluoromethyl)-thiazol-2-amine] |
| < 500 | > 10000 | 1000 to 10000 | CN1CCN(CCOc2cc(OC3CCOCC3)c3c(Sc4ccc(F)cc4Cl)ncnc3c2)CC1 [Example 3.3, 4-((2-chloro-4-fluorophenyl)thio)-7-(2-(4-methylpiperazin-1-yl)ethoxy)-5-((tetrahydro-2H-pyran-4-yl)oxy)quinazoline] |
| > 10000 | 1000 to 10000 | > 10000 | CCN(CC)CCNc1cc(OC2CCOCC2)c2c(Nc3nc(C(F)(F)F)cs3)ncnc2c1 [Example 7, N^7-(2-(diethylamino)ethyl)-5-((tetrahydro-2H-pyran-4-yl)oxy)-N^4-(4-(trifluoromethyl)thiazol-2-yl)quinazoline-4,7-diamine] |
| > 10000 | 500 to 1000 | > 10000 | OC[C@@H](O)COc1cc(OC2CCOCC2)c2c(Nc3nc(C(F)(F)F)cs3)ncnc2c1 [Example 2.55, (R)-3-((5-((tetrahydro-2H-pyran-4-yl)oxy)-4-((4-(trifluoromethyl)thiazol-2-yl)amino)quinazolin-7-yl)oxy)propane-1,2-diol] |
| < 500 | < 500 | < 500 | CN1CCC(COc2cc(OC3CCOCC3)c3c(Sc4nccs4)ncnc3c2)CC1 [Example 2.52, 2-((7-((1-methylpiperidin-4-yl)methoxy)-5-((tetrahydro-2H-pyran-4-yl)oxy)quinazolin-4-yl)thio)thiazole] |

— US9771333B2, “Quinazoline derivatives as TAM family kinase inhibitors” (SIGNALCHEM LIFESCIENCES CORP., priority 2013, dated 2017)
